Measurements taken from patent US5418160A, “Cloned cell line expressing rat β3A adrenergic receptor” (The United States as represented by the Secretary of the …, priority 1991, dated 1995).
Read-outs that look alike come from different tables or passages of the source.

Legend:
[1] = biological target: T1, fat cell β receptor (β3A -adrenergic receptor) (Rattus norvegicus, UniProt P26255); assay: Inhibition of BRL 37344-induced cAMP accumulation in transfected CHO cells; assay type: cell-based; conditions: read-out: inhibition of BRL 37344-induced cAMP accumulation
T1 construct: expressed in transfected cells
T1 sequence (P26255 whole entry): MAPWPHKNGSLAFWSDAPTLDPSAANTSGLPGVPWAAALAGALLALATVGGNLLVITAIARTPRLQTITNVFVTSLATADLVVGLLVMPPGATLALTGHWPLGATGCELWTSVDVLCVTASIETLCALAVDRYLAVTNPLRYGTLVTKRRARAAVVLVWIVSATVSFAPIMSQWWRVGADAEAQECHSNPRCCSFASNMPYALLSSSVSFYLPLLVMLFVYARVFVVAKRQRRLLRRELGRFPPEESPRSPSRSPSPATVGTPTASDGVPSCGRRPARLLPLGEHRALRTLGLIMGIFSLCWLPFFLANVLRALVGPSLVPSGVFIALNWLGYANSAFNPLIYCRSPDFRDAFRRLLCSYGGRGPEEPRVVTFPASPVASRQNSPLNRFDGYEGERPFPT
Source text: Using a protocol for cotransfection of CHO cells (a 1.5 kb fragment was excised from pBluescript using Saci (present in the multiple cloning site of the vector) and BamHI and inserted into the Sac/BamH/sites of PSVL (Pharmacie). CHO-K1 cells were cotransfected with pSVL and pMSVneo (neomycin resistance plasmid) F. Z. Chung, C. D. Wang, P. C. Potter, J. C. Venter and C. M. Fraser, J. Biol. Chem. 263, 4052 (1988) using the CaPO4 precipitation technique. Stable transfectants were obtained by growth of the cells in culture medium containing Geneticin (500 μg/ml); colonies derived from single cells were isolated and expanded.

β2 -adrenergic receptors = conditions: read-out: KD for [125I]-ICYP binding to β2-adrenergic receptors; cited from earlier work
β3 -adrenergic receptor = conditions: read-out: KD reported for [125I]-ICYP binding to the β3-adrenergic receptor; Emorine et al.; cited from earlier work
β1 -adrenergic receptors = conditions: read-out: KD for [125I]-ICYP binding to β1-adrenergic receptors; cited from earlier work
brown adipocytes = conditions: Arch et al., read-out: EC50 for increases in lipolysis; cited from earlier work

Row | Compound | inhibition at 100 µM ([1]; CHO) | EC50 (brown adipocytes) | also measured
1 | COCCc1ccc(OCC(O)CNC(C)C)cc1 (centres unmarked) [metoprolol] | 70% |  | 
2 | C=CCc1ccccc1OCC(O)CNC(C)C (centres unmarked) [alprenolol] |  |  | inhibition at 100 µM ([1]; antagonist at 10^-4 M, transfected CHO cells): 52%
3 | CC(C)(C)NCC(O)COc1cccc2[nH]c(C#N)c([125I])c12 (centres unmarked) [[^125 1]-ICYP, [^125 1]-iodocyanopindolol] |  |  | Kd (β2 -adrenergic receptors): 0.03 nM; Kd (β3 -adrenergic receptor): 0.5 nM; Kd (β1 -adrenergic receptors): 0.011 nM
4 | CC(C)NCC(O)c1ccc(O)c(O)c1 (centres unmarked) [isoproterenol] |  | 8 nM | 
5 | CC(Cc1ccc(OCC(=O)O)cc1)NCC(O)c1cccc(Cl)c1 (centres unmarked) [BRL 37344] |  | 1.7 nM | 
6 | CC(C)NCC(O)COc1ccc(CC(N)=O)cc1 (centres unmarked) [atenolol] | 30% |  | 
